Data taken from patent US20170165236A1, “SELECTIVE SPHINGOSINE 1 PHOSPHATE RECEPTOR MODULATORS AND COMBINATION THERAPY THEREWITH” (Celgene International II Sàrl, priority 2013, published 2017).

Key:
S1P5 = target: T1, S1P5 (Homo sapiens, UniProt Q9H228); assay: Specificity over other S1P receptors: S1P5-bla TANGO U2OS; assay type: cell-based; conditions: without Forskolin, read-out: S1P5 agonist value (EC50)
T1 construct: fused on or other part: Tango handle at the receptor's C-terminus: a TEV protease cleavage site and the Gal4-VP16 transcription factor, possibly a V2 vasopressin receptor tail; The cells also carry a beta-arrestin/TEV protease fusion and a UAS-beta-lactamase reporter
T1 sequence (Q9H228 whole entry, the tested form may be a part): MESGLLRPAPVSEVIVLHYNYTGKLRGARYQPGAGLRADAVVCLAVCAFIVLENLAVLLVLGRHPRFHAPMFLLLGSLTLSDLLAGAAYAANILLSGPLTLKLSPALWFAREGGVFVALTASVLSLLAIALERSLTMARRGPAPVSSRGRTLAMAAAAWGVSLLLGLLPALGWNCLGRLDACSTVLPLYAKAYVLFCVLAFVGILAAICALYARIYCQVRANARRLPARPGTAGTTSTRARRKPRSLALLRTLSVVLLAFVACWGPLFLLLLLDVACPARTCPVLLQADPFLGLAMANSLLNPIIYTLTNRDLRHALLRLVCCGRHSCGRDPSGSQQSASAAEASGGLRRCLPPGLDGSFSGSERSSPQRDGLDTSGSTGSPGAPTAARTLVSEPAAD
Experimental: (§1) Cells were seeded into 384-well black wall/clear bottom plates at 10^4 cells/well/19.5 μl assay media (DMEM-phenol free, 0.5% charcoal/dextran stripped serum, 2 mM glutamine, 0.1 mM NEAA, 1 mM Na-Pyruvate, 25 mM Hepes) and incubated for 18 hrs at 37° C. in 5% CO2. Dose response curves (10-point) were generated in 10 mM Hepes, 0.1% Pluronic F127, in the presence of Forskolin. Cells were treated with 0.5 μl compound in the presence of 2 μM Forskolin for 4 hrs at 37° C. The FRET-based β-lactamase fluorescent substrate (LiveBLAzer™-FRET B/G Loading Kit CC4-AM; Invitrogen) was prepared according to manufacturer's directions, and incubated with cells for 2 hrs at room temperature. Plates were read at Ex:410/Em:458 and Ex:410/Em:522, and the response ratio determined. Data was analyzed by non-linear regression to determine the EC50 for inhibition of Forskolin induced cAMP.
(§2) To assess compound specificity on other S1P receptors the following cell lines were used: S1P2 CRE-bla CHOK1, S1P3-Gα15 NFAT-bla HEK293T (Invitrogen), S1P4-bla TANGO U2OS (Invitrogen), S1P5-bla TANGO U2OS (Invitrogen). The same assay set up for S1P1 was used but without Forskolin. S1P4 and S1P5 assays were performed in FreeStyle Expression medium (Invitrogen). S1P5 cells were incubated for 48 hrs in prior to treatment with compound.

S1P1/EDG1 = S1P1/EDG1 (Homo sapiens, UniProt P21453); assay: S1P1 CRE-bla CHOK1 reporter assay, inhibition of Forskolin induced cAMP; assay type: cell-based; conditions: CRE-bla CHOK1 cells, with Forskolin; read-out: S1P1 agonist value (EC50)
S1P1/EDG1, sequence (P21453 whole entry): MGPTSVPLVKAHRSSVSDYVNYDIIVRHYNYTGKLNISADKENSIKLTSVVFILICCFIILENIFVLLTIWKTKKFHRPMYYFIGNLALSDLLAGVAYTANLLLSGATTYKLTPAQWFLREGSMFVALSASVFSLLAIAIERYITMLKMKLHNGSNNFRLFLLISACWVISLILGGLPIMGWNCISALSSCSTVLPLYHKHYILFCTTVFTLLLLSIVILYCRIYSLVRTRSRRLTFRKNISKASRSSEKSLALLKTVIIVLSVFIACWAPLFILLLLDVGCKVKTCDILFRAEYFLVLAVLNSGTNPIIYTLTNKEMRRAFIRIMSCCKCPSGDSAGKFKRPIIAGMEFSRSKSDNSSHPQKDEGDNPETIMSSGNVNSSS
Experimental: Generation of S1P1-Mediated Inhibition of cAMP Reporter Assay
S1P1/pcDNA3.1 was transfected into the CRE-bla CHO K1 (Invitrogen) cell line, and stable single cell clones were selected using standard techniques.
S1P1 CRE-Bla CHOK1 Reporter Assay—Characterization of S1P1 Agonists
as §1, with “Plates were read at Ex:410/Em:458 and Ex:410/Em:522, and the response ratio determined.” left out

S1P4 = target: T2, S1P4 (Homo sapiens, UniProt O95977); assay: Specificity over other S1P receptors: S1P4-bla TANGO U2OS; assay type: cell-based; conditions: without Forskolin, read-out: S1P4 agonist value (EC50)
T2 construct: fused on or other part: Tango handle at the receptor's C-terminus: a TEV protease cleavage site and the Gal4-VP16 transcription factor, possibly a V2 vasopressin receptor tail; The cells also carry a beta-arrestin/TEV protease fusion and a UAS-beta-lactamase reporter
T2 sequence (O95977 1-384): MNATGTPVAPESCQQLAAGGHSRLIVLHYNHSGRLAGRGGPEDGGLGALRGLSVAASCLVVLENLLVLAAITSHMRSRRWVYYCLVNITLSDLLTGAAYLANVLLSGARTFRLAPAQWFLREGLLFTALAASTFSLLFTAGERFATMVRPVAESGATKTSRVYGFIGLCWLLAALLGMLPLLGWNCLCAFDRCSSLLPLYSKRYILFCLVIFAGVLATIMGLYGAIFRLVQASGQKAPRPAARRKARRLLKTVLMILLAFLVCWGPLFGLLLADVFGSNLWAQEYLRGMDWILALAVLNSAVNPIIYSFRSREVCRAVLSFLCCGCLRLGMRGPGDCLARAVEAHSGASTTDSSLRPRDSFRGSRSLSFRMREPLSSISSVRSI
Experimental: as §1, §2

S1P2 = target: T3, S1P2 (Homo sapiens, UniProt O95136); assay: Specificity over other S1P receptors: S1P2 CRE-bla CHOK1; assay type: cell-based; conditions: S1P2 CRE-bla CHOK1, without Forskolin; read-out: S1P2 agonist value (EC50)
T3 construct: expressed in transfected cells; host or cells: CRE-bla CHOK1
T3 sequence (O95136 whole entry, species assumed): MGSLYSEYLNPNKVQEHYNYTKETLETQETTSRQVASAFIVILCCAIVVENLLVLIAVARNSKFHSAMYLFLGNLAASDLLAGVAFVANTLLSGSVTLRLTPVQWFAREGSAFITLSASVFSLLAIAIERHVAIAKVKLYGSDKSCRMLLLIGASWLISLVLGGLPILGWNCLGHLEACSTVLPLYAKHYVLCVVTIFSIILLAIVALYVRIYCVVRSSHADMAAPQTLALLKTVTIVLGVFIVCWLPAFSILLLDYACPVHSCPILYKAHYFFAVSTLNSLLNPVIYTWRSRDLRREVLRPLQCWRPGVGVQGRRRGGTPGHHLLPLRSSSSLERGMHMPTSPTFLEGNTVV
Experimental: as §1, §2

[1] = Therapeutic index, 5 or 14 day toxicology studies in rats (lung to body weight); assay type: in vivo, Sprague-Dawley rats
Experimental: All studies were conducted in non-fasted male and female Sprague-Dawely rats (Simonsen Laboratories). Rats were housed in an AAALAC accredited facility and the research was approved by the facilities Institutional Animal Care and Use Committee (IACUC). The animals were acclimated to the laboratory for at least 5 days prior to initiation of experiments.
The compounds listed in Table 6 were formulated as suspensions in a vehicle consisting of 0.5% carboxymethyl cellulose (Acros Organics) in purified water (pH adjusted to ˜2.2 with hydrochloric acid). The same formulation was used in the rat lymphopenia and toxicology studies described below. The concentration of each compound in suspension was verified to be within ±10% of the target concentration by HPLC-UV.
Prior to the conduct of toxicology studies, the effect of three to five daily doses of each compound on peripheral T-cell counts of female rats was determined (see lymphopenia measurements in rats above). In these lymphopenia studies, blood samples were collected onto EDTA at intervals after the final study dose. The collection times were not identical for each study; however, all studies included a sample collected 24 hours after the final dose. The lymphopenia data was used as a biomarker to select equally pharmacologically active doses for the subsequent toxicology study. […]

peripheral T-cell counts = assay: Lymphopenia in rats, multiple dose; assay type: in vivo; conditions: 24 hours after final dose of a 3-5 day multiple dose regimen
Experimental: In rats: Female rats (Simonsen Laboratories, Gilroy Calif.) were housed in an ALAAC accredited facility and the research was approved by the facilities Institutional Animal Care and Use Committee (IACUC). The animals were acclimated to the laboratory for at least 5 days prior to initiation of experiments. Rats (n=3/compound/time-point) were dosed by oral gavage with 1 mg/kg compound formulated in a vehicle consisting of 5% DMSO/5% Tween 20 and 90% 0.1N HCL. Control rats were dosed PO with the vehicle. Whole blood was collected from isoflurane anesthetized rats via the retro-orbital sinus and terminal samples were collected by cardiac puncture into EDTA. Whole blood was incubated with mouse anti-rat CD32 (BD #550271), PE-mouse anti-rat CD45R/B220 (BD #554881), PECy5-mouse anti-rat CD4 (BD #554839), and APC-mouse anti-rat CD8a (eBioscience #17-0084) for 30 minutes on ice. Red blood cells were lysed using BD Pharm Lyse Lysing buffer (#555899) and white blood cells were analyzed with a BD FACSArray. Lymphopenia was expressed as the % of white blood cells that were CD4 or CD8 positive T cells. […]
Prior to the conduct of toxicology studies, the effect of three to five daily doses of each compound on peripheral T-cell counts of female rats was determined (see lymphopenia measurements in rats above). […]

## CC(C)Oc1ccc(-c2nc(-c3cccc4c3CCC4NS(=O)(=O)CCO)no2)cc1C#N (stereo in doubt) [Compound 186, (R)—N-(4-(5-(3-cyano-4-isopropoxyphenyl)-1,2,4-oxadiazol-3-yl)-2,3-dihydro-1H-inden-1-yl)-2-hydroxyethanesulfonamide]
S1P5
  EC50: 32.3 nM
S1P1/EDG1
  EC50: 0.05 nM
S1P4
  EC50: 1210 nM
S1P2
  EC50: 1570 nM
[1]; 5 day toxicology study, dose for 10% lung weight increase / dose for 50% T-cell depletion
  TI 5 days: 16
[1]; oral, 5 or 14 consecutive days, interpolated from dose versus lung to body weight
  Dose Resulting in 10% increase in lung weight: 1.1 mg/kg
Peripheral T-cell counts
  Dose Producing 50% lymphopenia: 0.07 mg/kg
